From US20060111366A1, “Pharmaceutical use of substituted amides” (Novo Nordisk A/S, priority 2003, published 2006)

The compounds below were run against T1, h-11βHSD1 (Homo sapiens, UniProt P28845) (assay: 11βHSD1 enzyme assay (scintillation proximity assay, conversion of 3H-cortisone to 3H-cortisol)). Conditions: extract of yeast transformed with h-11βHSD1; 120 nM 3H-cortisone, 4 mM β-NADPH, 60 min at 30° C.
T1 construct: made in house
Type: biochemical
Description: ^3H-cortisone and anti-rabbit Ig coated scintillation proximity assay (SPA) beads were purchased from Amersham Pharmacia Biotech, β-NADPH was from Sigma and rabbit anticortisol antibodies were from Fitzgerald. An extract of yeast transformed with h-11βHSD1 (Hult et al., FEBS Lett., 441, 25 (1998)) was used as the source of enzyme. The test compounds were dissolved in DMSO (10 mM). All dilutions were performed in a buffer containing 50 mM TRIS-HCl (Sigma Chemical Co), 4 mM EDTA (Sigma Chemical Co), 0.1% BSA (Sigma Chemical Co), 0.01% Tween-20 (Sigma Chemical Co) and 0.005% bacitracin (Novo Nordisk A/S), pH=7.4. Optiplate 96 wells plates were supplied by Packard. The amount of ^3H-cortisol bound to the SPA beads was measured on TopCount NXT, Packard.
h-11βHSD1, 120 nM ^3H-cortisone, 4 mM β-NADPH, antibody (1:200), serial dilutions of test compound and SPA particles (2 mg/well) were added to the wells. The reaction was initiated by mixing the different components and was allowed to proceed under shaking for 60 min at 30° C. […] Data was analysed using GraphPad Prism software.

T1 sequence (P28845 whole entry): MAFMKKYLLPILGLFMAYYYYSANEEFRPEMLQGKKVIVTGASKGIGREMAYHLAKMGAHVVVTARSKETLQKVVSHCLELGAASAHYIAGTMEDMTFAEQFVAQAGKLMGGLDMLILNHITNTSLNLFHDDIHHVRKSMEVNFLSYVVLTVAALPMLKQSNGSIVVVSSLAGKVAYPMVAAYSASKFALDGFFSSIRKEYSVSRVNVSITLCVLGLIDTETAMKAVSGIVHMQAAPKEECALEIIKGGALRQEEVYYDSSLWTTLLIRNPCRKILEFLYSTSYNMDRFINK

| Compound | IC50 [nM] |
| --- | --- |
| CN(C(=O)c1ccc2[nH]cnc2c1)C1CCCCC1 [(V) 1, 1H-Benzoimidazole-5-carboxylic acid cyclohexyl-methyl-amide] | 45 |
| CCCc1c(C(=O)N(C)C2CCCCC2)cnn1-c1ccc(Cl)cc1 [(III) 1, 1-(4-Chloro-phenyl)-5-propyl-1H-pyrazole-4-carboxylic acid cyclohexyl-methyl-amide] | 40 |
| CN(C(=O)CCCOc1ccc2c(c1)OCO2)C1CCCCC1 [(I) 1, 4-(Benzo[1,3]dioxol-5-yloxy)-N-cyclohexyl-N-methyl-butyramide] | 560 |

Now from value to compound:

| IC50 [nM] | Compound |
| --- | --- |
| 118 | CN(C(=O)c1ccc2cc[nH]c2c1)C1CCCCC1 [(VII) 2, 1H-Indole-6-carboxylic acid cyclohexyl-methyl-amide] |
| 120000 | CN1CCC(N(C)C(=O)CCCOc2ccccc2)CC1 [(I) 2, N-Methyl-N-(1-methyl-piperidin-4-yl)-4-Phenoxy-butyramide] |
| 6 | CC1Oc2c(C(=O)N(C)C3CCCCC3)cccc2C1C (stereo not drawn) [(VI) 1, 2,3-Dimethyl-2,3-dihydro-benzofuran-7-carboxylic acid cyclohexyl-methyl-amide] |
